According to the NIST ThermoML archive (doi:10.1016/j.jct.2013.09.026):
± gives the expanded uncertainty stated by the source.

Details: 298.15 K; 101.33 kPa; Liquid; Vibrating tube method

mass density	Compound
722.814 ± 0.19 kg/m3	CCN(CC)CC [triethylamine]
799.656 ± 0.17 kg/m3	CCCO [propan-1-ol]

Compound	mass density
CCC(C)=O [butanone]	799.969 ± 0.17 kg/m3
